According to paper PMC7955127, “Preclinical small molecule WEHI-7326 overcomes drug resistance and elicits response in patient-derived xenograft models of human treatment-refractory tumors” (Cell Death & Disease, 2021):

Assays:
CEM dEpoB300 = test: Cell growth inhibition assay, CEM dEpoB300; type: cell-based; conditions: Homo sapiens; CEM dEpoB300, leukemia (taxane resistant, β-tubulin mutation); 72 h, Alamar Blue; mean of 3 ± SEM; read-out: IC50 (inhibition of cellular proliferation)
Protocol: (§1) Cells were plated at a density of between 500 to 5000 cells per well for adherent cell lines depending on doubling time, and 15,000 cells per well for lymphoblastic leukemia cell lines, in a 96-well plate in 200 μl of growth media. Plates were incubated overnight at 37 °C before adding the inhibitors. Inhibitors were serially diluted from the stock solutions in complete medium and added to the cells. Incubation in the presence of inhibitors was continued for […]. Cell viability was assessed by the AlamarBlue (Invitrogen) or CellTiterBlue/Glo (Promega) method according to manufacturer’s instructions. The curve fits and IC50 values were generated in PRISM (GraphPad, San Diego, CA).
(§2) Parental human lymphoblastic leukemia cells (CEM) and their drug resistant derivatives (dEpoB30 and dEpoB300) were cultured in the presence of increasing amounts of WEHI-7326, paclitaxel or epothilone B. Cell survival was determined as described in Experimental Procedures. Shown are mean of 3 experiments +/- SEM. Dose response curves were fitted in PRISM using non-linear regression (4 parameter logistic) to calculate IC50 values.

HepG2 cytotoxic assay = type: cell-based; conditions: human; HepG2 cells, cell viability after 48 h
Protocol: a Chemical structures of the triazine-based anti-mitotics used in this study. b Dose-dependent antiproliferative activity of key derivatives and comparison with commonly used anti-mitotics in SW480 cell line: Data shown is cell viability (as measured by CellTiterGlo) after 72 h relative to untreated control cells. Shown is mean of 3 independent experiments performed in duplicate +/- SEM. c Dose-dependent cell cycle analysis of key derivatives of WEHI-7326 development in SW480 cell line. Data are presented as percentage of cells in G2/M or subG0 after 24 h incubation with titration of inhibitors as assessed by PI staining and flow cytometry. Mean average of 3 experiments +/- SEM. d Comparison of IC50 and EC50 values of triazine compounds and anti-mitotic drugs in SW480 cell line: inhibition of cellular proliferation and cell cycle arrest in G2/M. IC50 and EC50 values are the mean of 3 independent experiments run in duplicates +/- SEM (n.d. = not determined). e HepG2 cytotoxic assay: cell viability assay after 48 h, normalised to 0.4% DMSO (100% viability) and 2 μM bortezomib (0% viability). The data is the mean average of 2 experiments +/- SD.

tubulin in SW480 cells = test: Tubulin polymerization in cells (polymerized vs soluble, western blot); type: cell-based, human; conditions: 100 nM, overnight, vs control cells
Protocol: Cells incubated with control or with inhibitors were lysed in hypotonic buffer (1 mM MgCl2/2 mM EGTA/0.5% Nonidet P-40/20 mM Tris·HCl, pH 6.8 with the addition of complete protease inhibitor cocktail). The lysates were centrifuged at 14,000 rpm for 10 min at RT. Supernatants (containing soluble tubulin) and pellets (containing polymerized tubulin) were separated and each sample was brought to an equal volume with hypotonic buffer. Proteins were resolved by SDS/PAGE on 4–12% gels (Invitrogen, Carlsbad, CA), transferred to nitrocellulose and immunoblotted with an antibody against tubulin followed by fluorescent secondary antibody. Immunoreactive bands were detected using an Odyssey photometer (Li-Cor, Lincoln, NB).

porcine tubulin = test: Tubulin in vitro polymerization assay (fluorescence-based, BK011P); type: biochemical; conditions: purified tubulin
Protocol: A commercial fluorescence-based tubulin polymerization assay (Cytoskeleton, Denver, CO; Cat. # BK011P) was used as per manufacturer’s instructions for detection of tubulin polymerization inhibitors. Briefly, porcine tubulin (3 mg/ml tubulin in 80 mM PIPES pH 7.0, 0.5 mM EGTA, 2 mM MgCl2, 1 mM GTP and 10% glycerol) was incubated at 37 °C with either vehicle control (DMSO), with Paclitaxel or antimitotic compound. Each condition was tested in duplicate. Polymerization was measured over time by excitation at 360 nm and emission at 420 nm in a temperature controlled 96-well plate fluorimeter (Envision 2105, Perkin-Elmer, Waltham, MS) equipped with filters for excitation at 340–360 nm and emission at 420–450 nm.

[1] = tested on: MDA-MB-231, H1437, LoVo and PC3 cells; test: Anti-proliferative activity in a panel of cancer cell lines (CellTiterGlo, 72 h); type: cell-based, human
Protocol: as §1

CEM = test: Cell growth inhibition assay, CEM; type: cell-based; conditions: Homo sapiens, CCRF-CEM, acute lymphoblastic leukemia, 72 h viability assay, Alamar Blue, mean of 3 ± SEM, read-out: IC50 (inhibition of cellular proliferation)
Protocol: as §1, §2

134169 HGSOC PDX = test: HGSOC post-chemo PDX model 134169; type: in vivo, NSG mice; conditions: 134169 post-taxane, cisplatin-refractory PDX; 20 mg/kg i.v. twice a week, 6 weeks
Protocol: Two to three mm ovarian tumor fragments were subcutaneously engrafted in the left flank of NSG mice and monitored by physical palpation for tumor growth and engraftment. Engrafted tumors were measured twice a week using digital Vernier calipers and maximum tumor diameter + perpendicular tumor length were digitally recorded into the Study Director software (v 3.0/4.0 StudyLog). Tumor volume was calculated automatically (tumor volume (mm^3) = 0.5236 x [larger diameter (mm) x smaller diameter (mm)^2]). Mice were randomized to treatment once their tumor volume reach 180–300 mm^3 and tumor measurements were performed twice a week up to 120 days or when the tumor volume reaches 700 mm^3.
Time to progressive disease (PD): Defined as the time (in days) from beginning of treatment to an increase in average tumor volume of >20% from the nadir (taken as the smallest average tumor volume recorded since treatment started or 200 mm^3 if nadir was <200 mm^3 as lesions smaller than this are difficult to measure with accuracy). Median time to harvest (TTH): Defined as the time (in days) from the beginning of treatment to day of harvest at 700 mm^3 and the median TTH was calculated and plotted using Kaplan-Meier curves. Based on ref. [27]. […]

In the case of COc1ccc(CNc2nc(NCc3ccc(CN)cc3)nc(NN3CC(=O)NC3=O)n2)cc1 [WEHI-7326], the IC50 (CEM dEpoB300) is reported as 6.51 ± 0.08 nM, the IC50 at 48 h (HepG2 cytotoxic assay) is reported as greater than 40000 nM and the “Change in ratio of polymerized to soluble tubulin” value (tubulin in SW480 cells) is reported as “no significant change”. For the same compound, the “Effect on in vitro tubulin polymerization” value (porcine tubulin; 50 μM) was “markedly slowed tubulin polymerization”, the “Effect on in vitro tubulin polymerization rates” value (porcine tubulin; concentrations up to 15 μM, vs vehicle) was “did not affect” and the “Anti-proliferative activity relative to myoseverin B” value [1] was “over 10 fold”. For the same compound, the IC50 (CEM) was 3.99 ± 0.04 nM and the Tumor response (134169 HGSOC PDX) was “ineffective”.
